According to US12514814B2, “Composition containing extract of Lilium hansonii leichtlin ex baker” (LG HOUSEHOLD & HEALTH CARE LTD., priority 2019, dated 2026):

How the values were obtained:
[1] = tested on: Human dermal fibroblasts; experiment: Hyaluronic acid synthesis promotion (Hyaluronan ELISA); type: cell-based; conditions: 10 ng/ml (10 ppb); positive control; 24 hours; control without additive = 100%
Method: Human dermal fibroblasts were cultured at a concentration of 1×10^5 cells/mL in a DMEM medium containing 10% fetal bovine serum and, after dispensing 500 μl thereof into each well of a 24-well plate, cultured for 18 hours. Subsequently, each sample was diluted in a DMEM medium not containing fetal bovine serum, and each sample was added at various concentrations. As a positive control, an epidermal growth factor (EGF) known to promote hyaluronic acid production was treated at a concentration of 10 ppb. After culturing for 24 hours, a cell culture medium was recovered, and the concentration of hyaluronic acid was measured using a Hyaluronan ELISA kit (R&D Systems).
In addition, the hyaluronic acid concentration of each experimental group treated with each sample was quantified based on the hyaluronic acid concentration (100%) of a control not containing an additive, and the results are shown in the following Table 5.

[2] = tested on: B-16 mouse melanoma cell; experiment: Total melanin amount reduction; type: cell-based; conditions: 100 μg/ml, three days
Method: Each of Examples 1 to 3 and Comparative Examples 1 to 3 was added to a mouse melanoma cell (B-16 mouse melanoma cell) culture medium, and a whitening effect thereof at the cellular level was tested.
Each extract was tested after being added to the culture medium at a final concentration of 100 μg/ml, and arbutin, which was a control, was added to the medium at a concentration of 100 μg/ml. B-16 melanoma cells were treated with the experimental group or the control and then cultured for three days.
Subsequently, the cultured cells were treated with trypsin, removed from the culture vessel, and then centrifuged to extract melanin. The removed cells were treated with 1 ml of a sodium hydroxide solution (1 N) and then boiled for 10 minutes to dissolve melanin, and absorbance was measured at 400 nm using a spectrophotometer to measure the amount of produced melanin.
The amount of melanin was measured as absorbance per unit cell number (10^6 cells), and a ratio thereof relative to the total melanin amount of the control was calculated as an inhibition rate (%), and the results are summarized in Table 4.

[3] = tested on: human-derived fibroblasts; experiment: Effect of increasing total collagen amount (PICP EIA kit); type: cell-based; conditions: 52.8 μg/ml; cultured one day; relative to control without additive; n=3
Method: The Lilium hansonii extracts and the three types of Lilium genus plant extracts were added to a culture medium containing human-derived fibroblasts, and then their effects of increasing a total collagen amount at the cellular level were compared. The increased total collagen amount was quantified using a Procollagen Type I C-Peptide Enzyme ImmunoAssay kit (PICP EIA kit). […] After adding each sample to a culture medium containing human-derived fibroblasts and culturing for one day, the culture medium was collected and a degree of increase in a total collagen amount at each concentration was measured at 450 nm using a PICP EIA kit and a spectrophotometer. For the comparison of effects, a degree of increase in a total collagen amount was measured in the same manner for a fibroblast culture medium to which no sample was added (control) and a sample to which vitamin C was added at a final concentration of 52.8 μg/ml. The total collagen amount was measured as UV absorbance, and a rate of increase in the total collagen amount was calculated as a ratio of a total collagen amount relative to that of the control, and the results are summarized in Table 1 below.

[4] = tested on: tyrosinase enzyme extracted from mushrooms; experiment: Tyrosinase inhibition; type: biochemical; conditions: 52.8 μg/ml; positive control; n=3
Method: A tyrosinase enzyme extracted from mushrooms and commercially available from SIGMA was used. First, tyrosine, a substrate, was dissolved in distilled water to make a solution having a concentration of 0.3 mg/ml, 1.0 ml of the solution was input into each test tube, and 1.0 ml of a potassium-phosphate buffer solution (concentration: 0.1 mol, pH: 6.8) and 0.7 ml of distilled water were added thereto. 0.2 ml of a sample solution, which had been prepared by adding one of Examples 1 to 3 of the present invention and Comparative Examples 1 to 3 to an ethanol solution at a final concentration of 100 μg/ml, was added to a reaction solution and then reacted in a 37° C. thermostat for 10 minutes. In this case, a control was prepared by adding only 0.2 ml of an ethanol solution instead of the sample solution, and vitamin C was used as a positive control. After adding 0.1 ml of a 2,500 units/ml tyrosinase solution, the reaction solution was again reacted in a 37° C. thermostat for 10 minutes. The test tube containing the reaction solution was quenched by placing in ice water to stop the reaction, and absorbance was measured at a wavelength of 475 nm using a photoelectric spectrometer, and the results are shown in Table 3 below. The tyrosinase inhibitory effect of each sample was calculated according to the following Mathematical Formula 2.

[5] = Glycation inhibitory activity using L-arginine and glucose; type: biochemical; conditions: 55 μg/ml; positive control; n=3
Method: To confirm an antiglycation efficacy, glycation inhibitory activity was measured using L-arginine and glucose.
A solution of 1 M L-arginine and 1 M glucose in 1 M phosphate buffer (pH 7.4) was first prepared and diluted with 1 M phosphate buffer so that the concentration of the sample was 100 μg/ml, 1 M L-arginine and 1 M phosphate buffer were mixed in a ratio of 1:4, and 80 μl thereof was dispensed into each well of a 96-well plate. To this, each sample, which was diluted to 100 μg/ml, and 100 μl of 0.01 M aminoguanidine, which was used as a positive control, were added. After sufficiently mixing the sample, finally, glucose which was diluted with 1 M phosphate buffer so that the final concentration of glucose was 0.1 M was added and then reacted at 70° C. for four hours. In the 96-well plate, absorbance was measured at 420 nm using a spectrophotometer to measure a degree of glycation.
The glycation experimental group of Mathematical Formula 3 is an experimental group in which glycation was induced by adding 1 M L-arginine and 1 M glucose, and to measure the absorbance of a sample itself, absorbance was measured at 420 nm after adding only 1 M L-arginine and the sample and no glucose.
The glycation inhibitory activity can be calculated according to the following Mathematical Formula 3. Each group was tested three times, and an average value was obtained.

In the case of “EGF: epidermal growth factor known to promote hyaluronic acid production, positive control”, the “Hyaluronic acid (%)” value [1] was 150.9%.

For `OC[C@H]1O[C@@H](Oc2ccc(O)cc2)[C@H](O)[C@@H](O)[C@@H]1O` [Arbutin, arbutin], the “Total melanin amount (Abs)” value ([2]; absorbance at 400 nm per 10^6 cells, control 0.254) was 0.126 Abs and the inhibition at 100 µg/mL ([2]; Mus musculus, 72 h, relative to control, read-out: Inhibition rate (%) (total melanin)) was 50.4%.

In the case of `O=C1O[C@H]([C@@H](O)CO)C(O)=C1O` [Vitamin C, vitamin C], the “Collagen increase rate (%)” value [3] was 26% and the “Tyrosinase inhibition rate (%)” value [4] was 50%.

For `N=C(N)NN` [Aminoguanidine, aminoguanidine], the “Glycation inhibition rate (%)” value [5] was 54.89%.
